These compounds were tested against hPAD4 enzyme (Homo sapiens (Human), UniProt Q9UM07) (assay: RFMS2 assay (RapidFire mass spectrometry, TSTGGRQGSHH peptide substrate)). Conditions: 35 nM recombinant human PAD4, 500 μM TSTGGRQGSHH peptide, 30 minutes at room temperature; read-out: RFMS 2 IC50.
Format: biochemical
How it was run: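 Recombinant human PAD4 (35 nM) with 500 μM TSTGGRQGSHH peptide in HEPES pH 7.4, 200 mM NaCl, 2 mM CaCl2, 5 mM DTT, 1.2% DMSO, 30 min at room temperature; 3-fold compound series, top 20 μM. Quenched with formic acid; substrate and citrullinated product quantified by RapidFire MRM mass spectrometry for IC50.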

hPAD4 enzyme, sequence (Q9UM07 whole entry): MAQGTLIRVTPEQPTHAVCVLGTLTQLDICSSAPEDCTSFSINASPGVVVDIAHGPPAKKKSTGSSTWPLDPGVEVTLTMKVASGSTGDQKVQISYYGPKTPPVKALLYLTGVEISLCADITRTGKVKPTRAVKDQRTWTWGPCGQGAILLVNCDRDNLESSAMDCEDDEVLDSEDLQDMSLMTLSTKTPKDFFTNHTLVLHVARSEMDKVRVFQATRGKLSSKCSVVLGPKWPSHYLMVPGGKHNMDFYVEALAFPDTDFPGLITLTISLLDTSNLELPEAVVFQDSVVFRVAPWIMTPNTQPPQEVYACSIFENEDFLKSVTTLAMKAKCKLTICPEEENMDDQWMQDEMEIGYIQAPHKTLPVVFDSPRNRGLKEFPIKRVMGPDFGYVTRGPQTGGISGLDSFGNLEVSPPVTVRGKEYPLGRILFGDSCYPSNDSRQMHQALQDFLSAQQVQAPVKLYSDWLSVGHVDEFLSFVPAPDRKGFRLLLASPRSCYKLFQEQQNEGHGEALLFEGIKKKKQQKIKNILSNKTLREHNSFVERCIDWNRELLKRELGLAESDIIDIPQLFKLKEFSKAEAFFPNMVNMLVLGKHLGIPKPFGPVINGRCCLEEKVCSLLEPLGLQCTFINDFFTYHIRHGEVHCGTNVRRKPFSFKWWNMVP

Row | SMILES | IC50 [nM]
1 | CN(C)CCOc1cccc2cc(-c3nc4cc5c(cc4n3C)CCN(C[C@H](N)CF)C5=O)n(CC3CC3)c12 [Example 154, (S)-6-(2-amino-3-fluoropropyl)-2-(1-(cyclopropyl-methyl)-7-(2-(dimethylamino)ethoxy)-1H-indol-2-yl)-1-methyl-1,6,7,8-tetrahydro-5H-imidazo[4,5-g] isoquinolin-5-one] | > 1000
2 | Cn1c(-c2cc3cccc(OCCN4CCOCC4)c3n2CC2CC2)nc2cc3c(cc21)CCN(C[C@H](N)CF)C3=O [Example 158, (S)-6-(2-amino-3-fluoropropyl)-2-(1-(cyclopropyl-methyl)-7-(2-morpholinoethoxy)-1H-indol-2-yl)-1-methyl-1,6,7,8-tetrahydro-5H-imidazo[4,5-g] isoquinolin-5-one] | 501 to 1000
3 | Cn1c(-c2cc3cccc(OC[C@@H]4CNCCO4)c3n2CC2CC2)nc2cc3c(cc21)CCN(C[C@H](N)CF)C3=O [Example 159, 6-((S)-2-amino-3-fluoropropyl)-2-(1-(cyclopropyl-methyl)-7-(((S)-morpholin-2-yl)methoxy)-1H-indol-2-yl)-1-methyl-1,6,7,8-tetrahydro-5H-imidazo[4,5-g] isoquinolin-5-one] | 501 to 1000
4 | Cn1c(-c2cc3cccc(OC[C@H]4CNCCO4)c3n2CC2CC2)nc2cc3c(cc21)CCN(C[C@H](N)CF)C3=O [Example 160, 6-((S)-2-amino-3-fluoropropyl)-2-(1-(cyclopropylmethyl)-7-(((R)-morpholin-2-yl)methoxy)-1H-indol-2-yl)-1-methyl-1,6,7,8-tetrahydro-5H-imidazo[4,5-g]isoquinolin-5-one] | 501 to 1000
5 | Cn1c(-c2cc3cccc(OCC4CCOCC4)c3n2CC2CC2)nc2cc3c(cc21)CCN(C[C@H](N)CF)C3=O [Example 161, (S)-6-(2-amino-3-fluoropropyl)-2-(1-(cyclopropylmethyl)-7-((tetrahydro-2H-pyran-4-yl)methoxy)-1H-indol-2-yl)-1-methyl-1,6,7,8-tetrahydro-5H-imidazo[4,5-g]isoquinolin-5-one] | 501 to 1000
6 | Cn1c(-c2cc3cccc(OCc4ccnnc4)c3n2CC2CC2)nc2cc3c(cc21)CCN(C[C@H](N)CF)C3=O [Example 171, (S)-6-(2-amino-3-fluoropropyl)-2-(1-(cyclopropylmethyl)-7-(pyridazin-4-ylmethoxy)-1H-indol-2-yl)-1-methyl-1,6,7,8-tetrahydro-5H-imidazo [4,5-g]isoquinolin-5-one] | 101 to 500
7 | Cn1c(-c2cc3cccc(OCc4ccno4)c3n2CC2CC2)nc2cc3c(cc21)CCN(C[C@H](N)CF)C3=O [Example 175, (S)-6-(2-amino-3-fluoropropyl)-2-(1-(cyclopropyl-methyl)-7-(isoxazol-5-ylmethoxy)-1H-indol-2-yl)-1-methyl-1,6,7,8-tetrahydro-5H-imidazo[4,5-g] isoquinolin-5-one] | 101 to 500
8 | Cn1c(-c2cc3cccc(OCc4nnco4)c3n2CC2CC2)nc2cc3c(cc21)CCN(C[C@H](N)CF)C3=O [Example 176, (S)-2-(7-((1,3,4-oxadiazol-2-yl)methoxy)-1-(cyclopropylmethyl)-1H-indol-2-yl)-6-(2-amino-3-fluoropropyl)-1-methyl-1,6,7,8-tetrahydro-5H-imidazo[4,5-g]isoquinolin-5-one] | 101 to 500
9 | Cc1nnc(COc2cccc3cc(-c4nc5cc6c(cc5n4C)CCN(C[C@H](N)CF)C6=O)n(CC4CC4)c23)o1 [Example 177, (S)-6-(2-amino-3-fluoropropyl)-2-(1-(cyclopropyl-methyl)-7-((5-methyl-1,3,4-oxadiazol-2-yl)methoxy)-1H-indol-2-yl)-1-methyl-1,6,7,8-tetrahydro-5H-imidazo[4,5-g]isoquinolin-5-one] | 101 to 500
10 | Cn1c(-c2cc3cccc(OCCn4cccc4)c3n2CC2CC2)nc2cc3c(cc21)CCN(C[C@H](N)CF)C3=O [Example 180, (S)-2-(7-(2-(1H-pyrrol-1-yl)ethoxy)-1-(cyclopropyl-methyl)-1H-indol-2-yl)-6-(2-amino-3-fluoropropyl)-1-methyl-1,6,7,8-tetrahydro-5H-imidazo[4,5-g] isoquinolin-5-one] | 101 to 500

More lines, now with the values ahead:

Row | IC50 [nM] | SMILES
11 | 101 to 500 | Cn1c(-c2cc3cccc(OCC4CNC4)c3n2CC2CC2)nc2cc3c(cc21)CCN(C[C@H](N)CF)C3=O [Example 152, (S)-6-(2-amino-3-fluoropropyl)-2-(7-(azetidin-3-ylmethoxy)-1-(cyclopropylmethyl)-1H-indol-2-yl)-1-methyl-1,6,7,8-tetrahydro-5H-imidazo[4,5-g]isoquinolin-5-one]
12 | 101 to 500 | COCCOc1cccc2cc(-c3nc4cc5c(cc4n3C)CCN(C[C@H](N)CF)C5=O)n(CC3CC3)c12 [Example 153, (S)-6-(2-amino-3-fluoropropyl)-2-(1-(cyclopropyl-methyl)-7-(2-methoxyethoxy)-1H-indol-2-yl)-1-methyl-1,6,7,8-tetrahydro-5H-imidazo[4,5-g] isoquinolin-5-one]
13 | 11 to 100 | Cn1c(-c2cc3cccc(OCCn4cccn4)c3n2CC2CC2)nc2cc3c(cc21)CCN(C[C@H](N)CF)C3=O [Example 155, (S)-2-(7-(2-(1H-pyrazol-1-yl)ethoxy)-1-(cyclopropyl-methyl)-1H-indol-2-yl)-6-(2-amino-3-fluoropropyl)-1-methyl-1,6,7,8-tetrahydro-5H-imidazo[4,5-g] isoquinolin-5-one]
14 | 101 to 500 | Cn1c(-c2cc3cccc(OC[C@@H]4CCC(=O)N4)c3n2CC2CC2)nc2cc3c(cc21)CCN(C[C@H](N)CF)C3=O [Example 156, 6-((S)-2-amino-3-fluoropropyl)-2-(1-(cyclopropyl-methyl)-7-(((S)-5-oxopyrrolidin-2-yl)methoxy)-1H-indol-2-yl)-1-methyl-1,6,7,8-tetrahydro-5H-imidazo [4,5-g]isoquinolin-5-one]
15 | 101 to 500 | Cn1c(-c2cc3cccc(OC[C@H]4CCC(=O)N4)c3n2CC2CC2)nc2cc3c(cc21)CCN(C[C@H](N)CF)C3=O [Example 157, 6-((S)-2-amino-3-fluoropropyl)-2-(1-(cyclopropyl-methyl)-7-(((R)-5-oxopyrrolidin-2-yl)methoxy)-1H-indol-2-yl)-1-methyl-1,6,7,8-tetrahydro-5H-imidazo [4,5-g]isoquinolin-5-one]
16 | 101 to 500 | Cc1nc(C)n(CCOc2cccc3cc(-c4nc5cc6c(cc5n4C)CCN(C[C@H](N)CF)C6=O)n(CC4CC4)c23)n1 [Example 162, (S)-6-(2-amino-3-fluoropropyl)-2-(1-(cyclopropyl-methyl)-7-(2-(3,5-dimethyl-1H-1,2,4-triazol-1-yl)ethoxy)-1H-indol-2-yl)-1-methyl-1,6,7,8-tetrahydro-5H-imidazo[4,5-g]isoquinolin-5-one]
17 | 101 to 500 | Cc1ncnn1CCOc1cccc2cc(-c3nc4cc5c(cc4n3C)CCN(C[C@H](N)CF)C5=O)n(CC3CC3)c12 [Example 163, (S)-6-(2-amino-3-fluoropropyl)-2-(1-(cyclopropylmethyl)-7-(2-(5-methyl-1H-1,2,4-triazol-1-yl)ethoxy)-1H-indol-2-yl)-1-methyl-1,6,7,8-tetrahydro-5H-imidazo[4,5-g]isoquinolin-5-one]
18 | 11 to 100 | Cc1ncn(CCOc2cccc3cc(-c4nc5cc6c(cc5n4C)CCN(C[C@H](N)CF)C6=O)n(CC4CC4)c23)n1 [Example 164, (S)-6-(2-amino-3-fluoropropyl)-2-(1-(cyclopropyl-methyl)-7-(2-(3-methyl-1H-1,2,4-triazol-1-yl)ethoxy)-1H-indol-2-yl)-1-methyl-1,6,7,8-tetrahydro-5H-imidazo[4,5-g]isoquinolin-5-one]
19 | 101 to 500 | Cn1c(-c2cc3cccc(OCc4cnco4)c3n2CC2CC2)nc2cc3c(cc21)CCN(C[C@H](N)CF)C3=O [Example 166, (S)-6-(2-amino-3-fluoropropyl)-2-(1-(cyclopropyl-methyl)-7-(oxazol-5-ylmethoxy)-1H-indol-2-yl)-1-methyl-1,6,7,8-tetrahydro-5H-imidazo[4,5-g] isoquinolin-5-one]
20 | 101 to 500 | Cn1c(-c2cc3cccc(OCc4ccon4)c3n2CC2CC2)nc2cc3c(cc21)CCN(C[C@H](N)CF)C3=O [Example 167, (S)-6-(2-amino-3-fluoropropyl)-2-(1-(cyclopropylmethyl)-7-(isoxazol-3-ylmethoxy)-1H-indol-2-yl)-1-methyl-1,6,7,8-tetrahydro-5H-imidazo[4,5-g]isoquinolin-5-one]
21 | 11 to 100 | Cn1c(-c2cc3cccc(OC[C@H]4CNC(=O)O4)c3n2CC2CC2)nc2cc3c(cc21)CCN(C[C@H](N)CF)C3=O [Example 168, (R)-5-(((2-(6-((S)-2-amino-3-fluoropropyl)-1-methyl-5-oxo-5,6,7,8-tetrahydro-1H-imidazo [4,5-g]isoquinolin-2-yl)-1-(cyclopropylmethyl)-1H-indol-7-yl)oxy)methyl)oxazolidin-2-one]
22 | 101 to 500 | Cn1c(-c2cc3cccc(OCCc4ccon4)c3n2CC2CC2)nc2cc3c(cc21)CCN(C[C@H](N)CF)C3=O [Example 170, (S)-6-(2-amino-3-fluoropropyl)-2-(1-(cyclopropyl-methyl)-7-(2-(isoxazol-3-yl)ethoxy)-1H-indol-2-yl)-1-methyl-1,6,7,8-tetrahydro-5H-imidazo[4,5-g] isoquinolin-5-one]
23 | 11 to 100 | Cn1c(-c2cc3cccc(OCC4COC(=O)N4)c3n2CC2CC2)nc2cc3c(cc21)CCN(C[C@H](N)CF)C3=O (stereo partly drawn) [Example 172, 4-(((2-(6-((S)-2-amino-3-fluoropropyl)-1-methyl-5-oxo-5,6,7,8-tetrahydro-1H-imidazo[4,5-g]isoquinolin-2-yl)-1-(cyclopropylmethyl)-1H-indol-7-yl)oxy)methyl)oxazolidin-2-one]
24 | 11 to 100 | Cn1c(-c2cc3cccc(OCCc4cc[nH]n4)c3n2CC2CC2)nc2cc3c(cc21)CCN(C[C@H](N)CF)C3=O [Example 173, (S)-2-(7-(2-(1H-pyrazol-3-yl)ethoxy)-1-(cyclopropylmethyl)-1H-indol-2-yl)-6-(2-amino-3-fluoropropyl)-1-methyl-1,6,7,8-tetrahydro-5H-imidazo [4,5-g]isoquinolin-5-one]

— US20250346592A1 (Celgene Corporation, priority 2022, published 2025)
